# US10294248B2, “Beta-lactamase inhibitors” (VenatoRx Pharmaceuticals, Inc., priority 2013, dated 2019)
# Columns and labels:
# [1] = test system: E. coli ESBL4 expressing CTX-M-15; test: Broth microdilution MIC, E. coli ESBL4 CTX-M-15; assay type: cell-based; settings: for MIC of example compound in presence of fixed β-lactam: Fixed CAZ, E. coli ESBL4 CTX-M-15: fixed 4 μg/mL ceftazidime, CAMHB, 16-20 hours at 37° C.
# Description: (§1) To determine the ability of test compounds to potentiate the inhibition of the growth of bacterial strains that produce beta-lactamase enzymes, classic cell based broth microdilution MIC assays were employed. Six bacteria strains producing beta-lactamase enzymes were used: E. coli expressing the Class A Extended Spectrum Beta-Lactamase (ESBL) CTX-M-15, E. cloacae expressing the Class C P99, K. pneumoniae expressing the Class A carbapenemase KPC-3, P. aeruginosa expressing the Class B carbapenemase VIM-2, K. pneumoniae expressing the class A carbapenemase KPC-2 and the class B carbapenemase VIM-4, and S. aureus producing the Class A penicillinase PC-1. The assay was conducted in Cation Adjusted Mueller Hinton Broth (CAMHB, BD #212322, BD Diagnostic Systems, Sparks, Md.). Bacteria strains were grown for 3-5 hours in CAMBH broth. Test compounds (Examples 1-30) were added to a microtiter plate in 2-fold serial dilutions in CAMHB in a final concentration range of 32 μg/mL to 0.25 μg/ml. An overlay of CAMHB containing a Beta-lactam was added to the compounds at a final static concentration of 4 μg/ml. […] In addition to the titration of test compounds the MICs of a panel of control beta-lactams is also tested to ensure the strains are behaving consistently from test to test. Once the test compound and antibiotics are added the plates can be inoculated according to CLSI broth microdilution method. After inoculation the plates are incubated for 16-20 hours at 37° C. then the Minimal Inhibitory Concentration (MIC) of the test compound is determined visually.
# (§2) Using the methodology described above, examples of the current invention were evaluated for their ability to inhibit the growth of β-lactamase-producing bacteria in the presence of a β-lactam antibiotic.
# (§3) Using the methodology described above in EXAMPLE III, exemplary compounds for Formula I or Formula Ia were evaluated for their ability to inhibit the growth of β-lactamase producing bacteria in the presence of a β-lactam antibiotic.
# [2] = test system: E. cloacae 144200 expressing Class C P99 AmpC; test: Broth microdilution MIC, E. cloacae 144200 p99 AmpC; assay type: cell-based; settings: for MIC of example compound in presence of fixed β-lactam: Fixed CAZ, E. cl. 144200 p99 AmpC: fixed 4 μg/mL ceftazidime, CAMHB, 16-20 hours at 37° C.
# Description: as §1, §2, §3
# [3] = target: T1, VIM-2 metallo-β-lactamase (Class B) (Pseudomonas aeruginosa, UniProt Q9K2N0); test: β-Lactamase inhibition, VIM-2; assay type: biochemical; settings: nitrocefin 100 μM, 486 nm; 15 min preincubation at 37° C., PBS pH 7.4
# T1 construct: made in house; host or cells: E. coli BL21(DE3)
# Experimental: For Vim-2 metallo β-lactamase, the procedure was identical with the following exceptions, first the protein was not pH adjusted to pH 5 with 50 mM sodium acetate, second, the chromatography step was changed to a 5 ml Q sepharose anion exchange column pre-equilibrated with 50 mM Hepes pH 7.5, and elution of the protein was achieved by a linear gradient of NaCl (0-600 mM). Finally, the VIM-2 purification required a second run (3rd step) on the Q sepharose anion exchange column to achieve acceptable purity (>90%).
# (§4) An equal volume of diluted enzyme stock was added, and the plates were incubated at 37° C. for 15 min. Nitrocefin was used as substrate for p99 AmpC, VIM-2 and OXA-1 and dispensed into each well at a final concentration of 100 μM. Absorbance at 486 nm was immediately monitored for 10 min using a Biotek Powerwave XS2 microplate spectrophotometer using the GEN5 software package (Biotek Instruments, Winooski Vt.). In an analogous fashion, imipenem was used as substrate for Kpc-2 and Cefotaxime was used for SHV-5, while changes in absorbance upon hydrolysis of the β-lactam ring were monitored at 300 nm and 260 nm respectively in UV-transparent 96-well microtiter assay plates. Maximum rates of hydrolysis were compared to those in control wells (without inhibitors), and percentages of enzyme inhibition were calculated for each concentration of inhibitor. The concentration of inhibitor needed to reduce the initial rate of hydrolysis of substrate by 50% (IC50) was calculated as the residual activity of β-lactamase at 486 nm using GraFit version 7 kinetics software package (Erithacus Software, Surrey, UK).
# (§5) Using the methodology described above, examples of the current invention were evaluated for their ability to inhibit β-lactamase enzymes from all four Ambler classifications (A through D). […] NT=Not tested.
# [4] = test system: K. pneumoniae A-1797 expressing KPC-2 and VIM-4; test: Broth microdilution MIC, K. pneumoniae A-1797 KPC-2/VIM-4; assay type: cell-based; settings: fixed 4 μg/mL meropenem; CAMHB, 16-20 hours at 37° C.
# Description: as §1, §2, §3
# [5] = target: T2, SHV-5 β-lactamase (Class A ESBL) (Klebsiella pneumoniae, UniProt P0A3M1); test: β-Lactamase inhibition, SHV-5; assay type: biochemical
# T2 construct: made in house; host or cells: E. coli BL21(DE3)
# Experimental: (§6) For SHV-5, Kpc-2, p99AmpC and OXA-1 β-lactamases, E. coli BL21(DE3) bacterial cells carrying expression plasmids (expressed as native untagged proteins) for the individual β-lactamases were grown in 1 L of Superbroth (Teknova Inc. Hollister, Calif.) supplemented with 100 μg/ml kanamycin selection and 1×5052 (0.5% glycerol, 0.05% glucose and 0.2% α-lactose) at 35° C. for 18-20 hours. Cells were harvested by centrifugation (4,000×g, 4° C., 20 min), resuspended in 50 ml of 10 mM HEPES pH 7.5 ( 1/20 of the initial volume). The cells were lysed by sonication (5 pulses of 45 seconds) at 45 W on ice. The lysates were clarified by centrifugation at 10,000×g for 40 minutes at 4° C. Samples were diluted 5-fold in 50 mM sodium acetate pH 5.0, stored overnight at 4° C., after which they were centrifuged at 10,000×g for 30 minutes to clarify, and filtered through 0.45 μm filters. The samples were loaded onto a 5 ml Capto S sepharose cation exchange column (GE Healthcare) pre-equilibrated with 50 mM sodium acetate pH 5.0. The column was washed with 5 column volumes of 50 mM sodium acetate pH 5.0 to wash out unbound protein and a linear gradient of NaCl (0 to 500 mM) was used to elute the protein (over 16 CV) from the column. Fractions were assayed for β-lactamase activity using Centa (Calbiochem, Gibbstown, N.J.) or Nitrocefin (EMD Millipore chemicals, Darmstadt, Germany) as a reporter β-lactamase substrate for activity in the isolated fractions. Active fractions were pooled, concentrated and further purified by gel filtration chromatography on a Superdex 75 prep grade gel filtration column (GE Healthcare, Piscataway, N.J.) pre-equilibrated in 50 mM Hepes pH 7.5, 150 mM NaCl. Active fractions were pooled concentrated, quantitated by BCA protein determination (Thermo Scientific, Rockford, Ill.), dialyzed into PBS and frozen at −80° C. in 20% glycerol until use.
# as §4, §5
# [6] = target: T3, p99 AmpC β-lactamase (Class C) (Enterobacter cloacae, UniProt P05364); test: β-Lactamase inhibition, p99 AmpC; assay type: biochemical
# T3 construct: made in house; host or cells: E. coli BL21(DE3)
# Experimental: as §6, §4, §5
# [7] = test system: K. pneumoniae 156319 expressing KPC-3; test: Broth microdilution MIC, K. pneumoniae 156319 KPC-3; assay type: cell-based; settings: fixed 4 μg/mL meropenem; CAMHB, 16-20 hours at 37° C.
# Description: as §1, §2, §3
# [8] = test system: P. aeruginosa Ps296 expressing VIM-2; test: Broth microdilution MIC, P. aeruginosa Ps296 VIM-2; assay type: cell-based; settings: fixed 4 μg/mL meropenem; CAMHB, 16-20 hours at 37° C.
# Description: as §1, §2, §3
# [9] = target: T4, KPC-2 β-lactamase (Class A carbapenemase) (Klebsiella pneumoniae, UniProt Q9F663); test: β-Lactamase inhibition, KPC-2; assay type: biochemical; settings: imipenem substrate, 300 nm; 15 min preincubation at 37° C., PBS pH 7.4
# T4 construct: made in house; host or cells: E. coli BL21(DE3)
# Experimental: as §6, §4, §5
# [10] = test system: S. aureus MSSA-7 producing penicillinase PC-1; test: Broth microdilution MIC, S. aureus MSSA-7 PC-1; assay type: cell-based; settings: fixed 4 μg/mL piperacillin; CAMHB, 16-20 hours at 37° C.
# Description: as §1, §2, §3
# T4 sequence (Q9F663 25-293, looked up): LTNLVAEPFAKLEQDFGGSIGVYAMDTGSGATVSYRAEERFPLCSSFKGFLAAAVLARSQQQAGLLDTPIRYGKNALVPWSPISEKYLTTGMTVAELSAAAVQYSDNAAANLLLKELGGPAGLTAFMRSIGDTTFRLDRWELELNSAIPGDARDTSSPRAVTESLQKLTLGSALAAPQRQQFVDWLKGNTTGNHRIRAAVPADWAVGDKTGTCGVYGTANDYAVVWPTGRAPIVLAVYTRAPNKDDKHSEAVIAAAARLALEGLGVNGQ
# T2 sequence (P0A3M1 22-286): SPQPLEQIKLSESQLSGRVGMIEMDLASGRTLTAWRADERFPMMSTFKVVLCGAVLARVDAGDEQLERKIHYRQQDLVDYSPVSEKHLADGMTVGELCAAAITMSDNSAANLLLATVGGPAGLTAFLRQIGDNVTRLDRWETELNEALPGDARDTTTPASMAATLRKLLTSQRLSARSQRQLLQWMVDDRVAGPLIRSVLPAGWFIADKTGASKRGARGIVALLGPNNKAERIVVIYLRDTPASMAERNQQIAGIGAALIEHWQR
# T3 sequence (P05364 21-381): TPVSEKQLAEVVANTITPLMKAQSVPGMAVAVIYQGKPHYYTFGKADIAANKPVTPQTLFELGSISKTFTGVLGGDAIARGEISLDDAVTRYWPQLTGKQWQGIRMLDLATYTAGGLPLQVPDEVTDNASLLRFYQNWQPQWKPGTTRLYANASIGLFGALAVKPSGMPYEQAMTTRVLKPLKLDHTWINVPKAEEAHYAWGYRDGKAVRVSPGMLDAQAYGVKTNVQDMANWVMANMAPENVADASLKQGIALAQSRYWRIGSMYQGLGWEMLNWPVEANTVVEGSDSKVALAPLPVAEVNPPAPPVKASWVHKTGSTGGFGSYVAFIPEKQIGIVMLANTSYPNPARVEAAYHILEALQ
Compound,"MIC ([1]; Escherichia coli, read-out: MIC alone, E. coli expressing CTX-M-15) [µg/mL]","MIC ([2]; Enterobacter cloacae, read-out: MIC alone, E. cloacae expressing Class C P99) [µg/mL]","MIC of example compound in presence of fixed β-lactam: Fixed CAZ, E. coli ESBL4 CTX-M-15 [1]",IC50 [3] [nM],"MIC of example compound in presence of fixed β-lactam: Fixed CAZ, E. cl. 144200 p99 AmpC [2]","MIC of example compound in presence of fixed β-lactam: Fixed Mero, K. P. A-1797 KPC-2 VIM-4 [4]",IC50 [5] [nM],IC50 [6] [nM],"MIC of example compound in presence of fixed β-lactam: Fixed Mero, K. P. 156319 KPC-3 [7]","MIC of example compound in presence of fixed β-lactam: Fixed Mero, P. aerug. Ps296 VIM-2 [8]",IC50 [9] [nM],"MIC of example compound in presence of fixed β-lactam: Fixed Pip, S. aureus MSSA-7 PC-1 [10]"
"CC(C)(O/N=C(\C(=O)N[C@@H]1C(=O)N2C(C(=O)[O-])=C(C[n+]3ccccc3)CS[C@H]12)c1csc(N)n1)C(=O)O [Ceftazidime, reference compound]",> 128,128,,,,,,,,,,
"N=C(N)NCCN1CCN(CC(=O)N[C@H]2Cc3cccc(C(=O)O)c3OB2O)C(=O)C1 [Example 38, 3-{2-[4-(2-Guanidino-ethyl)-2-oxo-piperazin-1-yl]-acetylamino}-2-hydroxy-3,4-dihydro-2H-benzo[e][1,2]oxaborinine-8-carboxylic acid]",,,C (the MIC in the presence of <4 μg/mL of a β-lactamase inhibitor),1000 to 10000,C (the MIC in the presence of <4 μg/mL of a β-lactamase inhibitor),A (an MIC of the fixed β-lactam antibiotic in the presence of >32 μg/mL of a β-lactamase inhibitor),100 to 1000,< 100,C (the MIC in the presence of <4 μg/mL of a β-lactamase inhibitor),B (the MIC in the presence of between 8 and 32 μg/mL of a β-lactamase inhibitor),1000 to 10000,
"NCCCN1CCC(CC(=O)N[C@H]2Cc3cccc(C(=O)O)c3OB2O)CC1 [Example 42, 3-{2-[1-(3-Amino-propyl)-piperidin-4-yl]-acetylamino}-2-hydroxy-3,4-dihydro-2H-benzo[e][1,2]oxaborinine-8-carboxylic acid]",,,C (the MIC in the presence of <4 μg/mL of a β-lactamase inhibitor),1000 to 10000,C (the MIC in the presence of <4 μg/mL of a β-lactamase inhibitor),A (an MIC of the fixed β-lactam antibiotic in the presence of >32 μg/mL of a β-lactamase inhibitor),< 100,< 100,C (the MIC in the presence of <4 μg/mL of a β-lactamase inhibitor),B (the MIC in the presence of between 8 and 32 μg/mL of a β-lactamase inhibitor),< 100,C (the MIC in the presence of <4 μg/mL of a β-lactamase inhibitor)
